Experimental data taken from US10202378B2, “Therapeutic compounds and uses thereof” (GENENTECH, INC., priority 2015, dated 2019).

Tests used:
[1] = target: TAF1-BD2 (Homo sapiens, UniProt P21675); experiment: TAF1-BD2 TR-FRET Binding Assay; conditions: read-out: TAF1-BD2 HTRF IC50
Procedure: IC50 Measurements for Inhibitors Using TAF1-BD2 TR-FRET Binding Assay
His/Flag epitope tagged TAF1-BD21504-1635 was cloned, expressed, and purified to homogeneity. TAF1-BD2 binding and inhibition was assessed by monitoring the engagement of a biotinylated small molecule compound 1000 with the target using the TR-FRET assay technology (Perkin-Elmer). Specifically, in a 384 well ProxiPlate, TAF1-BD2 (0.012 uM final) in 50 mM HEPES (pH 7.5; final), 50 mM NaCl (final), 1 mM TCEP (final), 0.1 mg/mL BSA (final), and 0.069 mM Brij-35 (final) was added either in the presence of DMSO (final 0.2% DMSO) or compound dilution series in DMSO. After a 10 minute incubation at room temperature, biotin-ligand (0.04 uM final) was added. After 10 minutes incubation at room temperature, a mixture Eu-W1024 Anti-6×His antibody (Perkin Elmer AD0110) and SureLight™ Streptavidin-Allophycocyanin (SA-APC, Perkin Elmer CR130-100) were added to a final concentration of 0.2 nM antibody and 0.025 uM SA-APC, respectively. After forty minutes of equilibration at room temperature, the plates were read on an Envision instrument and IC50s calculated using a four parameter logistic model (XLFIT).

[2] = target: TAF1-BD1 (Homo sapiens, UniProt P21675); experiment: TAF1-BD1 TR-FRET Binding Assay; conditions: read-out: TAF1-BD1 HTRF IC50
Procedure: IC50 Measurements for Inhibitors Using TAF1-BD1 TR-FRET Binding Assay
His/Flag epitope tagged TAF1-BD11381-1497 was cloned, expressed, and purified to homogeneity. TAF1-BD binding and inhibition was assessed by monitoring the engagement of a biotinylated small molecule compound 1000 with the target using the TR-FRET assay technology (Perkin-Elmer). Specifically, in a 384 well ProxiPlate, TAF1-BDI (0.08 uM final) in 50 mM HEPES (pH 7.5; final), 50 mM NaCl (final), 1 mM TCEP (final), 0.1 mg/mL BSA (final), and 0.069 mM Brij-35 (final) was added either in the presence of DMSO (final 0.2% DMSO) or compound dilution series in DMSO. After a 10 minute incubation at room temperature, biotin-ligand (0.08 uM final) was added. After 10 minutes incubation at room temperature, a mixture Eu-W1024 Anti-6×His antibody (Perkin Elmer ADO 110) and SureLight™ Streptavidin-Allophycocyanin (SA-APC, Perkin Elmer CR130-100) were added to final concentrations of 0.2 nM antibody and 0.05 uM SA-APC, respectively. After forty minutes of equilibration at room temperature, the plates were read on an Envision instrument and IC50s calculated using a four parameter logistic model (XLFIT).

IC50 [1] [nM]	IC50 [2] [nM]	SMILES
67.3	404	CCOC(=O)c1c(C)[nH]c2c(=O)n(C)cc(C#CC(C)(O)COc3ccccc3)c12 (centres unmarked) [Example 17, ethyl 4-(3-hydroxy-3-methyl-4-phenoxy-but-1-ynyl)-2,6-dimethyl-7-oxo-1H-pyrrolo[2,3-c]pyridine-3-carboxylate]
43.2	288	CCCCC(C)(C)OC(=O)c1c(C)[nH]c2c(=O)n(C)cc(C#CC(C)(C)O)c12 [Example 146, 1,1-dimethylpentyl 4-(3-hydroxy-3-methyl-but-1-ynyl)-2,6-dimethyl-7-oxo-1H-pyrrolo[2,3-c]pyridine-3-carboxylate]
21.9	282	CCOC(=O)c1c(C)[nH]c2c(=O)n(C)cc(C#CC3(O)CCCC3)c12 [Example 20, ethyl 4-[2-(1-hydroxycyclopentyl)ethynyl]-2,6-dimethyl-7-oxo-1H-pyrrolo[2,3-c]pyridine-3-carboxylate]
86.2	385	Cc1[nH]c2c(=O)n(C)cc(C#CC(O)(c3ccccc3)C(F)(F)F)c2c1-c1nnc(C(C)(C)C)o1 (centres unmarked) [Example 188, 3-(5-tert-butyl-1,3,4-oxadiazol-2-yl)-2,6-dimethyl-4-(4,4,4-trifluoro-3-hydroxy-3-phenyl-but-1-ynyl)-1H-pyrrolo[2,3-c]pyridin-7-one]
699	2280	CCOC(=O)c1c(C)[nH]c2c(=O)n(C)cc(C#CC(O)(c3cccc(Oc4ccccc4)c3)C(F)(F)F)c12 (centres unmarked) [Example 90, ethyl 2,6-dimethyl-7-oxo-4-[4,4,4-trifluoro-3-hydroxy-3-(3-phenoxyphenyl)but-1-ynyl]-1H-pyrrolo[2,3-c]pyridine-3-carboxylate]
50.7	543	Cc1nnc(-c2c(C)[nH]c3c(=O)n(C)cc(C#CC(C)(C)O)c23)o1 [Example 177, 4-(3-hydroxy-3-methyl-but-1-ynyl)-2,6-dimethyl-3-(5-methyl-1,3,4-oxadiazol-2-yl)-1H-pyrrolo[2,3-c]pyridin-7-one]
88.1	725	Cc1[nH]c2c(=O)n(C)cc(C#CC(O)(c3ccccc3)C(F)(F)F)c2c1-c1nnc(CCN(C)C)o1 (centres unmarked) [Example 178, 3-[5-[2-(dimethylamino)ethyl]-1,3,4-oxadiazol-2-yl]-2,6-dimethyl-4-(4,4,4-trifluoro-3-hydroxy-3-phenyl-but-1-ynyl)-1H-pyrrolo[2,3-c]pyridin-7-one]
34.1	185	CCOC(=O)c1c(C)[nH]c2c(=O)n(C)cc(C#CC(O)(c3cccc(C(N)=O)c3)C(F)(F)F)c12 (centres unmarked) [Example 197, ethyl 4-[3-(3-carbamoylphenyl)-4,4,4-trifluoro-3-hydroxy-but-1-ynyl]-2,6-dimethyl-7-oxo-1H-pyrrolo[2,3-c]pyridine-3-carboxylate]
29.2	137	Cc1[nH]c2c(=O)n(C)cc(C#CC(C)(O)C3CC3)c2c1-c1nnc(CC(C)C)o1 (centres unmarked) [Example 179, 4-(3-cyclopropyl-3-hydroxy-but-1-ynyl)-3-(5-isobutyl-1,3,4-oxadiazol-2-yl)-2,6-dimethyl-1H-pyrrolo[2,3-c]pyridin-7-one]
221	382	CCOC(=O)c1c(C)[nH]c2c(=O)n(C)cc(C#CC(C)(C)C(N)=O)c12 [Example 37, ethyl 4-(4-amino-3,3-dimethyl-4-oxo-but-1-ynyl)-2,6-dimethyl-7-oxo-1H-pyrrolo[2,3-c]pyridine-3-carboxylate]
98.6	1110	CCOC(=O)c1c(C)[nH]c2c(=O)n(C)cc(C#CC3(O)CCOCC3)c12 [Example 88, ethyl 4-[2-(4-hydroxytetrahydropyran-4-yl)ethynyl]-2,6-dimethyl-7-oxo-1H-pyrrolo[2,3-c]pyridine-3-carboxylate]
86.4	521	CC(=O)NCc1nnc(-c2c(C)[nH]c3c(=O)n(C)cc(C#CC(C)(O)C4CC4)c23)o1 (centres unmarked) [Example 174, N-[[5-[4-(3-cyclopropyl-3-hydroxy-but-1-ynyl)-2,6-dimethyl-7-oxo-1H-pyrrolo[2,3-c]pyridin-3-yl]-1,3,4-oxadiazol-2-yl]methyl]acetamide]
23.7	96.8	Cc1[nH]c2c(=O)n(C)cc(C#CC(C)(C)O)c2c1C(=O)OCC1CCCC1 [Example 148, cyclopentylmethyl 4-(3-hydroxy-3-methyl-but-1-ynyl)-2,6-dimethyl-7-oxo-1H-pyrrolo[2,3-c]pyridine-3-carboxylate]
79	481	CCCCC(C)(C)OC(=O)c1c(C)[nH]c2c(=O)n(C)cc(C#CC(C)(O)C3CC3)c12 (centres unmarked) [Example 137, 1,1-dimethylpentyl 4-(3-cyclopropyl-3-hydroxy-but-1-ynyl)-2,6-dimethyl-7-oxo-1H-pyrrolo[2,3-c]pyridine-3-carboxylate]
42.2	184	CCOC(=O)c1c(C)[nH]c2c(=O)n(C)cc(C#CC(O)(c3ccccc3)C(F)(F)F)c12 (single isomer, unassigned) [Example 91b, ethyl 2,6-dimethyl-7-oxo-4-(4,4,4-trifluoro-3-hydroxy-3-phenyl-but-1-ynyl)-1H-pyrrolo[2,3-c]pyridine-3-carboxylate]
47.7	292	CCOC(=O)c1c(C)[nH]c2c(=O)n(C)cc(C#Cc3cccnc3)c12 [Example 61, ethyl 2,6-dimethyl-7-oxo-4-[2-(3-pyridyl)ethynyl]-1H-pyrrolo[2,3-c]pyridine-3-carboxylate]
33.2	154	CCOC(=O)c1c(C)[nH]c2c(=O)n(C)cc(C#CC(C)(O)C3CC3)c12 (single isomer, unassigned) [Example 92a, ethyl 4-(3-cyclopropyl-3-hydroxy-but-1-ynyl)-2,6-dimethyl-7-oxo-1H-pyrrolo[2,3-c]pyridine-3-carboxylate]
88.8	334	Cc1[nH]c2c(=O)n(C)cc(C#CC(O)(c3ccccc3)C(F)(F)F)c2c1-c1nnc(CO)o1 (centres unmarked) [Example 205, 3-(5-(hydroxymethyl)-1,3,4-oxadiazol-2-yl)-2,6-dimethyl-4-(4,4,4-trifluoro-3-hydroxy-3-phenyl-but-1-ynyl)-1H-pyrrolo[2,3-c]pyridin-7-one]
36.4	270	Cc1[nH]c2c(=O)n(C)cc(C#CC(C)(O)C3CC3)c2c1-c1nnc(C(C)C)o1 (centres unmarked) [Example 191, 4-(3-cyclopropyl-3-hydroxy-but-1-ynyl)-3-(5-isopropyl-1,3,4-oxadiazol-2-yl)-2,6-dimethyl-1H-pyrrolo[2,3-c]pyridin-7-one]
106	276	Cc1[nH]c2c(=O)n(C)cc(C#CC(C)(O)CC#N)c2c1C(=O)OC(C)C (centres unmarked) [Example 156, isopropyl 4-(4-cyano-3-hydroxy-3-methyl-but-1-ynyl)-2,6-dimethyl-7-oxo-1H-pyrrolo[2,3-c]pyridine-3-carboxylate]
302	2590	CCOC(=O)c1c(C)[nH]c2c(=O)n(C)cc(C#C[C@@H]3CCC[C@H]3O)c12 (stereo in doubt) [Example 83, ethyl 4-[2-(2-hydroxycyclopentyl)ethynyl]-2,6-dimethyl-7-oxo-1H-pyrrolo[2,3-c]pyridine-3-carboxylate]
36.5	267	Cc1[nH]c2c(=O)n(C)cc(C#CC(O)(c3ccccc3)C(F)(F)F)c2c1C(=O)OC(C)(C)CC#N (centres unmarked) [Example 136, (2-cyano-1,1-dimethyl-ethyl) 2,6-dimethyl-7-oxo-4-(4,4,4-trifluoro-3-hydroxy-3-phenyl-but-1-ynyl)-1H-pyrrolo[2,3-c]pyridine-3-carboxylate]
63.2	257	CCOC(=O)c1c(C)[nH]c2c(=O)n(C)cc(C#CC3(O)CCCCC3)c12 [Example 81, ethyl 4-[2-(1-hydroxycyclohexyl)ethynyl]-2,6-dimethyl-7-oxo-1H-pyrrolo[2,3-c]pyridine-3-carboxylate]
777	561	CCOC(=O)c1c(C)[nH]c2c(=O)n(C)cc(C#CC(C)(C)C)c12 [Example 76, ethyl 4-(3,3-dimethylbut-1-ynyl)-2,6-dimethyl-7-oxo-1H-pyrrolo[2,3-c]pyridine-3-carboxylate]

SMILES	IC50 [1] [nM]	IC50 [2] [nM]
Cc1cc2c(C#CC(C)(C)O)cn(C)c(=O)c2[nH]1 [Example 198, 4-(3-hydroxy-3-methyl-but-1-ynyl)-2,6-dimethyl-1H-pyrrolo[2,3-c]pyridin-7-one]	536	1740
